21 compounds from US20240174690A1, “ANNULATED 2-AMINO-3-CYANO THIOPHENES AND DERIVATIVES FOR THE TREATMENT OF CANCER” (BOEHRINGER INGELHEIM INTERNATIONAL GMBH, priority 2021, published 2024) can be followed below.

Series [1] is described as follows: Solubility measurement (DMSO solution method), McIlvaine buffer pH 4.5 or 6.8. It is filed as physicochemical. The following applies: aqueous buffer, kinetic from dmso stock, DMSO stock diluted to 250 μM, 24 h shaking at ambient temperature. In outline: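 Filtrate concentration by LC-UV, calibrated to a known-concentration reference dissolved completely in acetonitrile/water (1:1). Samples came from 250 µM final dilutions of DMSO stock in pH 4.5 or 6.8 McIlvaine buffer, shaken 24 h at ambient temperature, then filtered.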

In the next series the test system is NCI-H358 cells. Nature of the series: NCI-H358 CTG proliferation assay (120 h) (NSCLC, G12C). It is filed as cell-based, human. The following applies: Homo sapiens. A digest of the protocol:
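IC50 values derive from four-parameter nonlinear regression of CellTiter-Glo viability (RLU relative to DMSO wells) after 120 h of exposure. Cells were plated in RPMI-1640 + 10% FCS at 2000 per well (assay 1) or 200 per well (assay 2). Untreated cells were measured at compound addition as T0.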

Series [2] relates to KRAS G12C-dependent Ba/F3 cells. Nature of the series: Ba/F3 proliferation assay, KRAS G12C. It is filed as cell-based. The following applies: Mus musculus, BaF3, 72 h, AlamarBlue. In outline: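 IL-3-independent Ba/F3 lines carrying retrovirally introduced KRAS G12C, G12D or G12V; puromycin withdrawn ~10 days before assay. Duplicate treatments, AlamarBlue fluorescence readout, curve-fit analysis.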

Series [3] can be described thus: Caco-2 assay (permeability PappAB, PappBA, efflux ratio). In kind it is in vitro ADME. The following applies: human, Caco-2, 10 μM test compound, pH 7.4; for Papp A→B at 90 min, 10 μM: apical to basolateral; for efflux ratio at 90 min, 10 μM: efflux ratio PappBA/PappAB, read-out: Caco ER. In outline:
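Bidirectional permeability (apical-to-basolateral and reverse) through polarized Caco-2 monolayers, BSA 0.25% on each side, 37 °C. Donor and receiver sampled at 0-90 min after 25-30 min preincubation, analysed by HPLC/MS/MS. Apparent permeabilities derived from transfer rate normalised to area and t=0 donor concentration; ER taken as PappBA over PappAB.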

Setting [4] is: McIlvaine buffer pH 4.5, read-out: solubility pH 4.5.
[5] abbreviates: McIlvaine buffer pH 6.8, read-out: solubility pH 6.8.
[6] abbreviates: assay 2, CTG, read-out: H358 (assay 2) IC50.

Converted amounts (≈) assume the structure as drawn. Like-named read-outs stand apart in the source and are kept apart here. Bounds are passed on as bounds.

Take `C[C@H](Oc1cc(-n2ccc(C3(O)COC3)n2)nc(-c2noc3c2CCC[C@@]32CCCc3sc(N)c(C#N)c32)n1)[C@@H]1CCCN1C` [II-189]: the solubility at 24 h in series [1] (setting [4]) is more than 152 µg/mL; in series [1] (setting [5]), 103 µg/mL (≈ 164 µM). The IC50 worked out at 19 nM in the series on NCI-H358 cells (setting [6]) and 9 nM in series [2]. Also, in series [3], the Papp A→B at 90 min, 10 μM was 7.9 ×10⁻⁶ cm/s. In addition, the efflux ratio at 90 min, 10 μM in series [3] is 5.8.
Turning to `C[C@H](Oc1cc(-n2nccc2-c2ccncc2)nc(-c2noc3c2CCC[C@@]32CCCc3sc(N)c(C#N)c32)n1)[C@@H]1CCCN1C` [II-131], the results for the IC50 (with NCI-H358 cells (setting [6]); in series [2]) were 277 nM and 16 nM, respectively. Besides, the efflux ratio at 90 min, 10 μM in series [3] was 0.9.
On to `C[C@H](Oc1cc(-n2ccc(C(=O)N[C@@H]3CCOC3)n2)nc(-c2noc3c2CCC[C@@]32CCCc3sc(N)c(C#N)c32)n1)[C@@H]1CCCN1C` [II-192], for which the solubility at 24 h in series [1] (setting [4]) was 124 µg/mL (≈ 185 µM); in series [1] (setting [5]), 59 µg/mL (≈ 88.1 µM). Moreover, the IC50 (with NCI-H358 cells (setting [6]); in series [2]) was 2 nM throughout. In addition, the Papp A→B at 90 min, 10 μM in series [3] was 10 ×10⁻⁶ cm/s. For the same compound, in series [3], the efflux ratio at 90 min, 10 μM turned out to be 2.5.
Take `C[C@@H]1CN(c2nc(-c3noc4c3CCC[C@@]43CCCc4sc(N)c(C#N)c43)nc(O[C@@H](C)[C@@H]3C[C@@H](F)CN3C)c2F)CC2(CC2)N1` [II-158]: the solubility at 24 h in series [1] (setting [4]) is more than 150 µg/mL; in series [1] (setting [5]), less than 1 µg/mL. Besides, the IC50 with NCI-H358 cells (setting [6]) is 58 nM; in series [2], 135 nM. Moreover, the efflux ratio at 90 min, 10 μM in series [3] was 0.4.
Take `C[C@H](Oc1cc(-n2ccc(-c3cn(C4CCOCC4)nn3)n2)nc(-c2noc3c2CCC[C@@]32CCCc3sc(N)c(C#N)c32)n1)[C@@H]1CCCN1C` [II-210]: the solubility at 24 h in series [1] (setting [4]) is 5 µg/mL (≈ 7.06 µM); in series [1] (setting [5]) it was less than 1 µg/mL. Also, the IC50 (with NCI-H358 cells (setting [6]); in series [2]) was 2 nM in each case. Moreover, the efflux ratio at 90 min, 10 μM in series [3] was found to be 2.6.
For `C[C@H](Oc1cc(-n2cncn2)nc(-c2onc3c2CCC[C@@]32CCCc3sc(N)c(C#N)c32)n1)[C@@H]1CCCN1C` [I-18], the solubility at 24 h in series [1] (setting [4]) is more than 121 µg/mL; in series [1] (setting [5]), 91 µg/mL (≈ 163 µM). The results for the IC50 (in the series on NCI-H358 cells (setting [6]); in series [2]) were 179 nM and 11 nM, respectively. The Papp A→B at 90 min, 10 μM in series [3] is 17 ×10⁻⁶ cm/s. The efflux ratio at 90 min, 10 μM in series [3] is 1.2.
Take `CO[C@H]1CCN(C)[C@@H]1[C@H](C)Oc1cc(N2CCN(C)C3(CC3)C2)nc(-c2noc3c2CCC[C@@]32CCCc3sc(N)c(C#N)c32)n1` [II-186]: the solubility at 24 h in series [1] (setting [4]) is more than 140 µg/mL; in series [1] (setting [5]), 22 µg/mL (≈ 34.1 µM). Moreover, the IC50 turned out to be 273 nM with NCI-H358 cells (setting [6]) and 192 nM in series [2]. Also, in series [3], the Papp A→B at 90 min, 10 μM came to 21 ×10⁻⁶ cm/s. In addition, the efflux ratio at 90 min, 10 μM in series [3] came out at 0.8.
For the compound `C[C@H]1CNCCCN1c1cc(-c2ccn(C)n2)nc(-c2noc3c2CCC[C@@]32CCCc3sc(N)c(C#N)c32)n1` [II-140], the solubility at 24 h in series [1] (setting [4]) was found to be 82 µg/mL (≈ 148 µM); in series [1] (setting [5]) it was 8 µg/mL (≈ 14.4 µM). The figures for the IC50 (with NCI-H358 cells (setting [6]); in series [2]) were 702 nM and 1020 nM, respectively.
For `CO[C@H]1CCN(C)[C@@H]1[C@H](C)Oc1cc(-n2ccc(C(=O)N[C@H]3CCOC3)n2)nc(-c2noc3c2CCC[C@@]32CCCc3sc(N)c(C#N)c32)n1` [II-198], the figures for the solubility at 24 h in series [1] (setting [4]) and in series [1] (setting [5]) were 12 µg/mL (≈ 17.1 µM) and less than 1 µg/mL, respectively. The IC50 (in the series with NCI-H358 cells (setting [6]); in series [2]) was 1 nM in each case.
Consider `CCN1CCN(c2cc(O[C@@H](C)[C@@H]3C[C@@H](F)CN3C)nc(-c3noc4c3CCC[C@@]43CCCc4sc(N)c(C#N)c43)n2)CC12CC2` [II-185], for which the solubility at 24 h is more than 147 µg/mL in series [1] (setting [4]) and 8 µg/mL (≈ 12.4 µM) in series [1] (setting [5]). Also, the IC50 was determined as 510 nM in the series with NCI-H358 cells (setting [6]) and 305 nM in series [2].
For `COc1c(O[C@@H](C)[C@@H]2CCCN2C)nc(-c2noc3c2CCC[C@@]32CCCc3sc(N)c(C#N)c32)nc1-n1ccc(C(N)=O)n1` [II-159] the same measures were 125 µg/mL (≈ 198 µM), 125 µg/mL (≈ 198 µM), 31 nM and 147 nM.
Turning to `C[C@H](Oc1cc(-c2cccc(C(N)=O)c2)nc(-c2noc3c2CCC[C@@]32CCCc3sc(N)c(C#N)c32)n1)[C@@H]1CCCN1C` [II-133], the solubility at 24 h in series [1] (setting [4]) is 3 µg/mL (≈ 4.92 µM); in series [1] (setting [5]), less than 1 µg/mL. The IC50 with NCI-H358 cells (assay 1, CTG, read-out: H358 (assay 1) IC50) amounted to 74 nM; with NCI-H358 cells (setting [6]), 9 nM; in series [2], 33 nM.
As for `CO[C@H]1CCN(C)[C@@H]1[C@H](C)Oc1cc(-n2ccc(C(=O)N[C@@H](C)c3ccccn3)n2)nc(-c2noc3c2CCC[C@@]32CCCc3sc(N)c(C#N)c32)n1` [II-196], the solubility at 24 h is 94 µg/mL (≈ 128 µM) in series [1] (setting [4]) and less than 1 µg/mL in series [1] (setting [5]). Further, the values for the IC50 (in the series with NCI-H358 cells (setting [6]); in series [2]) were 2 nM and 1 nM, respectively.
For the compound `C[C@H](Oc1cc(-c2cn(C)nn2)nc(-c2onc3c2CCC[C@@]32CCCc3sc(N)c(C#N)c32)n1)[C@@H]1CCCN1C` [I-16], the solubility at 24 h is more than 118 µg/mL in series [1] (setting [4]) and 82 µg/mL (≈ 143 µM) in series [1] (setting [5]). Further, the IC50 was found to be 204 nM in the series with NCI-H358 cells (setting [6]) and 21 nM in series [2].
As for `C[C@H](Oc1cc(-n2cc3ccn([C@@H]4CCOC4)c(=O)c3n2)nc(-c2noc3c2CCC[C@@]32CCCc3sc(N)c(C#N)c32)n1)[C@@H]1CCCN1C` [II-203], the solubility at 24 h was more than 159 µg/mL in series [1] (setting [4]) and 65 µg/mL (≈ 93.7 µM) in series [1] (setting [5]). Besides, the IC50 in the series with NCI-H358 cells (setting [6]) turned out to be 5 nM; in series [2] it was 6 nM.
The corresponding values for `C[C@H]1CNCCCN1c1cc(-n2ccnc2)nc(-c2noc3c2CCC[C@@]32CCCc3sc(N)c(C#N)c32)n1` [II-142] are 86 µg/mL (≈ 159 µM), 10 µg/mL (≈ 18.5 µM), 10800 nM and 2200 nM.
Turning to `C[C@H](Oc1cc(-n2cc3c(n2)CNC3)nc(-c2noc3c2CCC[C@@]32CCCc3sc(N)c(C#N)c32)n1)[C@@H]1C[C@@H](F)CN1C` [II-154], the solubility at 24 h was more than 144 µg/mL in series [1] (setting [4]) and 17 µg/mL (≈ 27.6 µM) in series [1] (setting [5]). For the same compound, the IC50 in the series on NCI-H358 cells (setting [6]) was 374 nM; in series [2], 245 nM.
`[2H]C([2H])([2H])N1C[C@H](F)C[C@H]1[C@H](C)Oc1cc(N2CCN(C([2H])([2H])[2H])C3(CC3)C2)nc(-c2noc3c2CCC[C@@]32CCCc3sc(N)c(C#N)c32)n1` [II-207]: the solubility at 24 h is more than 134 µg/mL in series [1] (setting [4]) and less than 1 µg/mL in series [1] (setting [5]). Moreover, the values for the IC50 (with NCI-H358 cells (setting [6]); in series [2]) were 287 nM and 283 nM, respectively.
Turning to `C[C@H](Oc1cc(-c2ccn(Cc3ncco3)n2)nc(-c2noc3c2CCC[C@@]32CCCc3sc(N)c(C#N)c32)n1)[C@@H]1CCCN1C` [II-128], the results for the solubility at 24 h in series [1] (setting [4]) and in series [1] (setting [5]) were more than 130 µg/mL and 42 µg/mL (≈ 65.9 µM), respectively. In addition, the IC50 in the series on NCI-H358 cells (setting [6]) turned out to be 417 nM; in series [2], 10 nM.
The corresponding values for `CC(=O)N1CCN(c2cc(O[C@@H](C)[C@@H]3CCCN3C)nc(-c3noc4c3CCC[C@@]43CCCc4sc(N)c(C#N)c43)n2)CC12CC2` [II-178] are 127 µg/mL (≈ 198 µM), 110 µg/mL (≈ 171 µM), 129 nM and 31 nM.
The corresponding values for `C[C@H](Oc1cc(N2Cc3cnn(C)c3C2)nc(-c2onc3c2CCC[C@@]32CCCc3sc(N)c(C#N)c32)n1)[C@@H]1CCCN1C` [I-19] are 48 µg/mL (≈ 78.5 µM), 14 µg/mL (≈ 22.9 µM), 2160 nM and 76 nM.
